For orientation: % inhibition means the drop in the measured response relative to a control, in per cent. Low readings indicate a weak effect, high ones a strong effect.

The source of these data is US20100184677A1, “USE OF THE HUMAN PANCREATIC POLYPEPTIDE AS A THERAPEUTIC AGENT” (priority 2007, published 2010).

The assay deals with drug-resistant Mycobacterium tuberculosis. The following applies: peptide 10 micrograms per ml, seven days.

Structures are written as SMILES.

With `CC[C@H](C)[C@H](NC(=O)[C@H](Cc1ccc(O)cc1)NC(=O)[C@H](CCCNC(=N)N)NC(=O)[C@H](CCCNC(=N)N)NC(=O)[C@H](CC(C)C)NC(=O)[C@H](CC(=O)O)NC(=O)[C@H](C)NC(=O)[C@H](C)NC(=O)[C@H](Cc1ccc(O)cc1)NC(=O)[C@H](CCC(N)=O)NC(=O)[C@H](C)NC(=O)[C@H](CCSC)NC(=O)[C@H](CCC(N)=O)NC(=O)[C@H](CCC(=O)O)NC(=O)[C@@H]1CCCN1C(=O)[C@@H](NC(=O)[C@H](C)NC(=O)[C@H](CC(N)=O)NC(=O)[C@H](CC(=O)O)NC(=O)CNC(=O)[C@@H]1CCCN1C(=O)[C@H](Cc1ccc(O)cc1)NC(=O)[C@@H](NC(=O)[C@@H]1CCCN1C(=O)[C@H](CCC(=O)O)NC(=O)[C@H](CC(C)C)NC(=O)[C@@H]1CCCN1C(=O)[C@H](C)N)C(C)C)[C@@H](C)O)C(=O)N[C@@H](CC(N)=O)C(=O)N[C@@H](CCSC)C(=O)N[C@@H](CC(C)C)C(=O)N[C@H](C(=O)N[C@@H](CCCNC(=N)N)C(=O)N1CCC[C@H]1C(=O)N[C@@H](CCCNC(=N)N)C(=O)N[C@@H](Cc1ccc(O)cc1)C(N)=O)[C@@H](C)O` [Pancreatic polypeptide], the “% inhibition” value is reported as 0.0%.
